Tested on: human Z138 mantle cell lymphoma cell line
Experiment: Tumor growth inhibition study in vivo, Z138 mantle cell lymphoma xenograft
Design: species or system SCID beige mice
Method: Cells were co-injected with Matrigel.
Experimental study protocol was reviewed and approved by local government. […] Continuous health monitoring was carried out on regular basis. Diet food (Provimi Kliba 3337) and water (acidified pH 2.5-3) were provided ad libitum.
Animals were controlled daily for clinical symptoms and detection of adverse effects.
The corresponding vehicle was administered on the same days.

## CCOc1cc(C(C)(C)C)ccc1C1=N[C@@](C)(c2ccc(Cl)cc2)[C@@](C)(c2ccc(Cl)cc2)N1C(=O)N1CCN(CCCS(C)(=O)=O)CC1 [MDM2 inhibitor]
Day 35, single agent 75 mg/kg p.o. once daily, three times weekly over 18 days (FIG. 2)
  tumor growth inhibition: 35%
Day 35, single agent 150 mg/kg p.o. once daily, three times weekly over 18 days (FIG. 3)
  tumor growth inhibition: 78%

## B-HH6-B-KV1 GE: afucosylated type II anti-CD20 antibody, humanized B-Ly1, glycoengineered; VH SEQ ID No.7, VL SEQ ID No. 20
Day 35 after tumor cell inoculation, single agent 0.5 mg/kg i.p. q7d once weekly for 3 weeks, compared to the control group
  tumor growth inhibition: 59%
